Data reported in PubChem BioAssay (NCI).
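Results reflect a 48-hour exposure of cells in 96-well plates to compound at five concentrations. Abbreviation: GI50, concentration required for 50% inhibition of growth. At the TGI there is no net growth.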

Tests used:
Experiment in all cases: NCI anticancer screen, dose series, 48 h
[1] = system: RPMI-8226 leukemia
[2] = system: CCRF-CEM leukemia
[3] = system: UACC-62 melanoma
[4] = system: SNB-75 CNS
[5] = system: 786-0 renal
[6] = system: IGROV1 ovarian
[7] = system: SN12C renal
[8] = system: ACHN renal
[9] = system: HL-60(TB) leukemia
[10] = system: MCF7 breast

| SMILES | TGI [1] | TGI [2] | TGI [3] | TGI [4] | TGI [5] | TGI [6] | TGI [7] | TGI [8] | TGI [9] | TGI [10] | GI50 [1] | GI50 [2] | GI50 [4] | GI50 [6] | GI50 [8] | GI50 [9] | GI50 [10] | GI50 [3] | GI50 [7] |
| --- | --- | --- | --- | --- | --- | --- | --- | --- | --- | --- | --- | --- | --- | --- | --- | --- | --- | --- | --- |
| COc1ccc(/C=N/Nc2[nH]c(=S)nc3[nH]ncc23)cc1 | > 100 µM | > 100 µM | > 100 µM | > 100 µM | > 100 µM | 68.2 µM | > 100 µM | > 100 µM | > 100 µM | > 100 µM |  |  |  |  |  |  |  |  |  |
| COc1cc(N=Nc2cccc(S(=O)(=O)O)c2)c(C)cc1N=Nc1ccc(/C=C/c2ccc(N=[N+]([O-])c3ccc(/C=C/c4ccc(N=Nc5cc(C)c(N=Nc6cccc(S(=O)(=O)O)c6)cc5OC)cc4)c(S(=O)(=O)O)c3)cc2S(=O)(=O)O)cc1 |  | > 100 µM | > 100 µM | > 100 µM |  | > 100 µM | > 100 µM |  | > 100 µM | > 100 µM |  |  |  |  |  |  |  |  |  |
| Cc1ncc([N+](=O)[O-])n1CCN=[N+]=[N-] | > 100 µM |  | > 100 µM | > 100 µM | > 100 µM | > 100 µM | > 100 µM | > 100 µM |  | > 100 µM |  |  |  |  |  |  |  |  |  |
| COc1ccccc1C1C(C#N)=C(N)OC2=C1C(=O)CCC2 (centres undefined) | 44.2 µM | > 100 µM |  | > 100 µM |  | > 100 µM |  | > 100 µM | > 100 µM | > 100 µM | 5.77 µM | 59.2 µM | > 100 µM | > 100 µM | > 100 µM | > 100 µM | > 100 µM |  |  |
| COc1cc(C2C(Cl)C(=O)N2c2ccc(Br)cc2)cc(I)c1O (centres undefined) | > 100 µM | > 100 µM | > 100 µM | > 100 µM | > 100 µM | 24.6 µM | > 100 µM | > 100 µM | > 100 µM | > 100 µM |  |  |  |  |  |  |  |  |  |
| O=S1(=O)NNC(=NCc2ccc(F)cc2)c2ccccc21 | > 78.8 µM | > 72.7 µM | > 100 µM |  | > 100 µM | > 100 µM | > 100 µM | > 100 µM | 19.6 µM | > 100 µM |  |  |  |  |  |  |  |  |  |
| NC(N)=N/N=C(\c1ccc(Cl)cc1)C1CC1 | 37.9 µM |  | 29.3 µM | 68.9 µM | 32.5 µM | 31.8 µM | 42.3 µM | 57.7 µM |  | 32.5 µM |  |  |  |  |  |  |  |  |  |
| C=C1C(=O)O[C@H]2C1[C@H](OC(=O)/C(C)=C\COC(C)=O)C[C@]1(CO1)[C@@H]1[C@H](O)[C@H]3O[C@@]3(C)[C@@H]12 (some centres undefined) | 46.5 µM | 54.2 µM | 30.4 µM | > 96.2 µM |  | 59.8 µM | > 57.1 µM |  | > 57.7 µM | 27.8 µM |  |  |  |  |  |  |  |  |  |
| COc1ccc(CNc2nc(NCc3ccc(OC)cc3)nc(NC3CCCCC3)n2)cc1 | > 100 µM |  | 9.41 µM |  | > 100 µM | 6.22 µM | > 100 µM | > 100 µM | > 100 µM | 0.533 µM |  |  |  |  |  |  |  |  |  |
| COc1cc(S(=O)(=O)Nc2nc(-c3ccc(N4C(=O)/C(=C/c5ccccc5)N=C4c4ccccc4)cc3)cs2)ccc1Cl |  | > 100 µM | 50.8 µM | > 100 µM | > 100 µM | > 100 µM | > 100 µM | > 100 µM |  | > 100 µM |  |  |  |  |  |  |  |  |  |
| CCOC(=O)/C=C1\Nc2ccccc2C12CCc1c([nH]c3ccccc13)C2C(=O)OCC (centres undefined) | 61.9 µM | > 100 µM | > 100 µM |  | > 100 µM | > 100 µM | > 100 µM | > 100 µM | > 100 µM | > 100 µM |  |  |  |  |  |  |  |  |  |
| COC(=O)C(C)N1C(=O)c2ccccc2I1OC(C)=O (centres undefined) | 37.6 µM | 45.5 µM | > 100 µM | > 100 µM |  | > 100 µM | > 100 µM | > 100 µM | > 100 µM | > 100 µM | 15.3 µM | 18.1 µM | 60.8 µM | 37.2 µM | 30.2 µM | 47.2 µM | 30.7 µM | 23 µM | 31.4 µM |
| CCCCc1ccc2[n+](c1)C(C(=O)OCC)=PC2 (centres undefined) | > 100 µM | > 100 µM | > 100 µM | > 100 µM | > 100 µM | > 100 µM | > 100 µM | > 100 µM | > 100 µM | > 100 µM |  |  |  |  |  |  |  |  |  |
| CC(C)=CCN(N=O)c1ncnc2nc[nH]c12 | > 100 µM | > 100 µM |  | > 100 µM | > 100 µM | > 100 µM | > 100 µM | > 100 µM | > 100 µM | > 100 µM |  |  |  |  |  |  |  |  |  |
| CCOC(=O)c1c2c(n(C)c1-c1ccccc1)C(=O)C(C)=CC2=O | 4.81 µM | 7.98 µM | 23.9 µM | 28.8 µM | 32.1 µM | 17.6 µM | 24.1 µM | 20.7 µM | 9.79 µM | 6.01 µM |  |  |  |  |  |  |  |  |  |
| CC(C)(C)OC(=O)NC(Cc1ccccc1)C(=O)N[C@H]1c2ccsc2/C(=N/O)[C@H]1O (some centres undefined) |  | > 100 µM | > 100 µM |  |  | > 100 µM | > 100 µM |  | > 100 µM | > 100 µM |  |  |  |  |  |  |  |  |  |
| O=C1c2ccccc2-c2ccc(NC(=O)C3CCCCC3C(=O)O)cc21 (centres undefined) | > 100 µM | > 100 µM | > 100 µM | > 100 µM | > 100 µM | > 100 µM | > 100 µM | > 100 µM | > 100 µM | > 100 µM |  |  |  |  |  |  |  |  |  |
| O=CNc1cccc2c3c([nH]c12)CCCCCC3 |  | > 100 µM | > 100 µM | > 100 µM |  | > 100 µM | > 100 µM |  | > 100 µM | > 100 µM |  |  |  |  |  |  |  |  |  |
| CCOC(=O)C1C(c2cc(OC)c(O)c(OC)c2)c2cc3c(cc2OC1(C)O)OCO3 (centres undefined) | > 100 µM | > 100 µM | > 100 µM | 77.9 µM |  | > 100 µM | > 100 µM | > 100 µM | > 100 µM |  |  |  |  |  |  |  |  |  |  |
| Cc1cc(NS(=O)(=O)c2ccc(Nc3c4ccccc4nc4c(C(=O)NCCN(C)C)ccc(Cl)c34)cc2)no1 |  | 10.8 µM | 10.4 µM | 11.9 µM |  | 20.7 µM | 16.8 µM | 12.3 µM | 5.58 µM |  |  |  |  |  |  |  |  |  |  |
